Assay results taken from patent US20200369728A1, “PEPTIDOMIMETIC MACROCYCLES AND USES THEREOF” (Aileron Therapeutics, Inc., priority 2015, published 2020).
Bridge positions count the residues as written; N and C are the ends. Square brackets hold non-standard residues; d marks the D form. Peptide text beside a SMILES is read from it. R8 = C=CCCCCCC[C@@](C)(N)C(=O)O; Cba = N[C@@H](CC1CCC1)C(=O)O; S5 = C=CCCC[C@](C)(N)C(=O)O; Nle = CCCC[C@H](N)C(=O)O

Legend:
SJSA-1 cells = test: Cell lysis by peptidomimetic macrocycles (LDH release); assay type: cell-based; details: SJSA-1, 1 h
Method: SJSA-1 cells were plated out one day in advance in clear flat-bottom plates (Costar, catalog number 353072) at 7500 cells/well with 100 ul/well of growth media, leaving row H columns 10-12 empty for media alone. On the day of the assay, media was exchanged with RPMI 1% FBS media, 90 uL of media per well.
10 mM stock solutions of the peptidomimetic macrocycles were prepared in 100% DMSO. Peptidomimetic macrocycles were then diluted serially in 100% DMSO, and then further diluted 20-fold in sterile water to prepare working stock solutions in 5% DMSO/water of each peptidomimetic macrocycle at concentrations ranging from 500 μM to 62.5 μM.
10 μL of each compound was added to the 90 uL of SJSA-1 cells to yield final concentrations of 50 μM to 6.25 μM in 0.5% DMSO-containing media. The negative control (non-lytic) sample was 0.5% DMSO alone and positive control (lytic) samples include 10 μM Melittin and 1% Triton X-100.
Cell plates were incubated for 1 hour at 37° C. After the 1 hour incubation, the morphology of the cells is examined by microscope and then the plates were centrifuged at 1200 rpm for 5 minutes at room temperature. 40 μL of supernatant for each peptidomimetic macrocycle and control sample is transferred to clear assay plates. LDH release is measured using the LDH cytotoxicity assay kit from Caymen, catalog #1000882.

Caspase 3 = Caspase 3 detection assay in SJSA1 cells; assay type: cell-based; details: SJSA1, 48 h, Caspase 3 activation over DMSO-treated cells

SMILES | 6.25 μM % Lysed cells (1 h LDH) (SJSA-1 cells) | 25 μM % Lysed cells (1 h LDH) (SJSA-1 cells) | 50 μM % Lysed cells (1 h LDH) (SJSA-1 cells) | caspase 0.3 μM (Caspase 3) | caspase 3 μM (Caspase 3) | caspase 10 μM (Caspase 3) | caspase 30 μM (Caspase 3)
CC[C@H](C)[C@H](NC(=O)[C@H](C)NC(=O)[C@H](C)NC(=O)[C@]1(C)CCCC=CCCCCCC[C@@](C)(NC(=O)[C@H](Cc2ccccc2)NC(=O)[C@@H](NC(=O)[C@H](CC(C)C)NC(C)=O)[C@@H](C)O)C(=O)N[C@@H](C)C(=O)N[C@@H](Cc2ccc(O)cc2)C(=O)N[C@@H](Cc2c[nH]c3ccccc23)C(=O)N[C@@H](C)C(=O)N[C@@H](CCC(N)=O)C(=O)N[C@@H](CC(C)C)C(=O)N1)C(=O)N[C@H](CC(C)C)C(N)=O (single isomer, unassigned) [compound 82] | 0% | 0% | 1% | – | – | – | –
CC(=O)N[C@@H](CC(C)C)C(=O)N[C@H](C(=O)N[C@@H](Cc1ccccc1)C(=O)N[C@]1(C)CCCCCCC=CCCC[C@@](C)(C(=O)N[C@@H](C)C(=O)N[C@H](C(=O)NCC(N)=O)C(C)C)NC(=O)[C@H](CC(C)C)NC(=O)[C@H](CCC(N)=O)NC(=O)[C@H](C)NC(=O)[C@H](Cc2c[nH]c3ccccc23)NC(=O)[C@H](Cc2ccc(O)cc2)NC(=O)[C@H](C)NC1=O)[C@@H](C)O (single isomer, unassigned) [compound 108] | 0% | 0% | 1% | – | – | – | –
CC(=O)N[C@@H](CC(C)C)C(=O)N[C@H](C(=O)N[C@@H](Cc1ccccc1)C(=O)N[C@]1(C)CCCCCCC=CCCC[C@@](C)(C(=O)N[C@@H](CO)C(=O)N[C@@H](C)C(=O)N[C@@H](C)C(N)=O)NC(=O)[C@H](CC(C)C)NC(=O)[C@H](CCC(N)=O)NC(=O)[C@H](C)NC(=O)[C@H](Cc2c[nH]c3ccccc23)NC(=O)[C@H](Cc2ccc(C(=O)O)cc2)NC(=O)[C@H](C)NC1=O)[C@@H](C)O (single isomer, unassigned) [compound 169] | 2% | 3% | 7% | – | – | – | –
CC[C@H](C)[C@H](NC(=O)[C@H](C)NC(=O)[C@H](C)NC(=O)[C@]1(C)CCCC=CCCCCCC[C@@](C)(NC(=O)[C@H](Cc2ccccc2)NC(=O)[C@@H](NC(=O)[C@H](CCC(=O)O)NC(C)=O)[C@@H](C)O)C(=O)N[C@@H](CCC(=O)O)C(=O)N[C@@H](Cc2c[nH]cn2)C(=O)N[C@@H](Cc2c[nH]c3ccccc23)C(=O)N[C@@H](C)C(=O)N[C@@H](CCC(N)=O)C(=O)N[C@@H](CC(C)C)C(=O)N1)C(=O)N[C@H](C)C(N)=O (single isomer, unassigned) [compound 174] | 5% | 2% | 5% | – | – | – | –
CC[C@H](C)[C@H](NC(=O)[C@H](C)NC(=O)[C@H](C)NC(=O)[C@]1(C)CCCC=CCCCCCC[C@@](C)(NC(=O)[C@H](Cc2ccccc2)NC(=O)[C@@H](NC(=O)[C@H](CC(C)C)NC(C)=O)[C@@H](C)O)C(=O)N[C@@H](C)C(=O)N[C@@H](Cc2ccc(C(=O)O)cc2)C(=O)N[C@@H](Cc2c[nH]c3ccccc23)C(=O)N[C@@H](C)C(=O)N[C@@H](CCC(N)=O)C(=O)N[C@@H](CC(C)C)C(=O)N1)C(=O)N[C@H](C)C(N)=O (single isomer, unassigned) [compound 182] | 0% | 3% | 6% | – | – | – | –
CC[C@H](C)[C@H](NC(=O)[C@H](C)NC(=O)[C@H](C)NC(=O)[C@]1(C)CCCC=CCCCCCC[C@@](C)(NC(=O)[C@H](Cc2ccccc2)NC(=O)[C@@H](NC(=O)[C@H](CC(C)C)NC(C)=O)[C@@H](C)O)C(=O)N[C@@H](CCC(=O)O)C(=O)N[C@@H](Cc2ccc(O)cc2)C(=O)N[C@@H](Cc2c[nH]c3ccccc23)C(=O)N[C@@H](C)C(=O)N[C@@H](CCC(N)=O)C(=O)N[C@@H](CC(C)C)C(=O)N1)C(=O)N[C@H](C)C(N)=O (single isomer, unassigned) [compound 217] | 2% | 1% | 2% | – | – | – | –
CC(=O)N[C@@H](CC(C)C)C(=O)N[C@H](C(=O)N[C@@H](Cc1ccccc1)C(=O)N[C@]1(C)CCCCCCC=CCCC[C@@](C)(C(=O)N[C@@H](C)C(=O)N[C@@H](C)C(=O)NC(C)(C)C(=O)N[C@@H](C)C(N)=O)NC(=O)[C@H](CC(C)C)NC(=O)[C@H](CCC(N)=O)NC(=O)[C@H](C)NC(=O)[C@H](Cc2c[nH]c3ccccc23)NC(=O)[C@H](Cc2ccc(O)cc2)NC(=O)[C@H](C)NC1=O)[C@@H](C)O (single isomer, unassigned) [compound 232] | 6% | 5% | 5% | – | – | – | –
CC[C@H](C)[C@H](NC(=O)[C@H](C)NC(=O)[C@H](C)NC(=O)[C@]1(C)CCCC=CCCCCCC[C@@](C)(NC(=O)[C@H](Cc2ccccc2)NC(=O)[C@@H](NC(=O)[C@H](CC(C)C)NC(C)=O)[C@@H](C)O)C(=O)N[C@@H](CCC(=O)O)C(=O)N[C@@H](Cc2ccc(C(=O)O)cc2)C(=O)N[C@@H](Cc2c[nH]c3cc(Cl)ccc23)C(=O)N[C@@H](C)C(=O)N[C@@H](CCC(N)=O)C(=O)N[C@@H](CC2CCC2)C(=O)N1)C(=O)N[C@H](C)C(N)=O (single isomer, unassigned) [compound 335] | 0% | 0% | 1% | – | – | – | –
CC[C@H](C)[C@H](NC(=O)[C@H](C)NC(=O)[C@H](C)NC(=O)[C@]1(C)CCCC=CCCCCCC[C@@](C)(NC(=O)[C@H](Cc2ccccc2)NC(=O)[C@@H](NC(=O)[C@H](CC(C)C)NC(C)=O)[C@@H](C)O)C(=O)N[C@@H](CCC(=O)O)C(=O)N[C@@H](Cc2ccc(C(=O)O)cc2)C(=O)N[C@@H](Cc2c[nH]c3cc(Cl)ccc23)C(=O)N[C@@H](C)C(=O)N[C@@H](CCC(N)=O)C(=O)N[C@@H](CC2CCC2)C(=O)N1)C(=O)N[C@H](C)C(N)=O (single isomer, unassigned) [compound 336] | 0% | 0% | 0% | – | – | – | –
CC(=O)N[C@@H](CCC(=O)O)C(=O)N[C@H](C(=O)N[C@@H](Cc1ccccc1)C(=O)N[C@]1(C)CCCCCCC=CCCC[C@@](C)(C(=O)N[C@@H](C)C(=O)N[C@@H](C)C(=O)N[C@@H](C)C(=O)N[C@@H](C)C(=O)N[C@@H](C)C(=O)N[C@H](C)C(N)=O)NC(=O)[C@H](CC(C)C)NC(=O)[C@H](CCC(N)=O)NC(=O)[C@H](C)NC(=O)[C@H](Cc2c[nH]c3ccccc23)NC(=O)[C@H](Cc2ccc(O)cc2)NC(=O)[C@H](CCC(=O)O)NC1=O)[C@@H](C)O (single isomer, unassigned) [compound 340] | 0% | 0% | 0% | – | – | – | –
CC(=O)N[C@@H](CCC(=O)O)C(=O)N[C@H](C(=O)N[C@@H](Cc1ccccc1)C(=O)N[C@]1(C)CCCCCCC=CCCC[C@@](C)(C(=O)N[C@@H](CO)C(=O)N[C@@H](CC(C)C)C(=O)N[C@@H](C)C(N)=O)NC(=O)[C@H](CC(C)C)NC(=O)[C@H](CCC(N)=O)NC(=O)[C@H](C)NC(=O)[C@H](Cc2c[nH]c3ccccc23)NC(=O)[C@H](Cc2ccc(O)cc2)NC(=O)[C@H](C(C)C)NC1=O)[C@@H](C)O [compound 127] (Ac-ETF[R8]VYWAQL[S5]SLA-NH2; staple 4-11) | – | – | – | 1 | 1 | 4 | 13
CCCC[C@H](NC(=O)[C@H](C)NC(=O)[C@H](C)NC(=O)[C@]1(C)CCCC=CCCCCCC[C@@](C)(NC(=O)[C@H](Cc2ccccc2)NC(=O)[C@@H](NC(=O)[C@H](CC(C)C)NC(C)=O)[C@@H](C)O)C(=O)N[C@@H](CCC(=O)O)C(=O)N[C@@H](Cc2ccc(O)cc2)C(=O)N[C@@H](Cc2c[nH]c3ccccc23)C(=O)N[C@@H](C)C(=O)N[C@@H](CCC(N)=O)C(=O)N[C@@H](CC2CCC2)C(=O)N1)C(=O)N[C@@H](C)C(N)=O [compound 238] (Ac-LTF[R8]EYWAQ[Cba][S5]AA[Nle]A-NH2; staple 4-11) | – | – | – | 1 | 2 | 4 | 21
CC(=O)N[C@@H](CC(C)C)C(=O)N[C@H](C(=O)N[C@@H](Cc1ccccc1)C(=O)N[C@]1(C)CCCCCCC=CCCC[C@@](C)(C(=O)N[C@@H](CO)C(=O)N[C@@H](C)C(=O)N[C@@H](Cc2ccccc2)C(=O)N[C@@H](C)C(N)=O)NC(=O)[C@H](CC2CCC2)NC(=O)[C@H](CCC(N)=O)NC(=O)[C@H](C)NC(=O)[C@H](Cc2c[nH]c3ccccc23)NC(=O)[C@H](Cc2ccc(O)cc2)NC(=O)[C@H](CCC(=O)O)NC1=O)[C@@H](C)O [compound 242] (Ac-LTF[R8]EYWAQ[Cba][S5]SAFA-NH2; staple 4-11) | – | – | – | 1 | 4 | 5 | 18
